Patent US20150057375A1, “USE OF IMPROVED N-ALKYL PYRROLIDONE SOLVENT” (TAMINCO, priority 2012, published 2015)
“Also recorded” adds a separate entry of the source.

Assays:
[1] = test system: female Han Wistar rat (embryo and foetus); assay: Screening study of effects on development of the embryo and foetus after gavage of pregnant rats (similar to OECD 422); format: in vivo; details: for Bone and cartilage abnormalities and variations / ossification and supernumerary ribs; test item-related effects in the foetuses / Weights of the foetuses: 100 mg/kg body weight/day to dams
Procedure: The purpose of this study was to detect effects of 4 test items or compounds on the development of the embryo and foetus consequent to exposure of the female Han Wistar rat to the test items from day 6 post coitum (implantation) to day 20 post coitum (the day prior to Caesarean section). Particular attention was given to the foetal skeleton. Each group received one test compound, at a dose level of 100 or 500 mg/kg/day. The results were compared to a negative control group, which were administered distilled water (Aqua dest.).
Each group consisted of 5 mated females, treated by gavage, once daily as follows:
A standard dose volume of […] body weight with a daily adjustment to the actual body weight was used.
The foetuses were removed from the uterus, sexed, weighed individually, examined for gross external abnormalities, sacrificed by a subcutaneous injection of sodium pentobarbital, eviscerated and with the exception of over the paws, the skin was removed and discarded. Carcasses were processed through solutions of ethanol, glacial acetic acid with Alcian blue (for cartilage staining), potassium hydroxide with Alizarin red S (for clearing and staining ossified bone) and aqueous glycerine for preservation and storage. The skeletons were examined and all abnormal findings and variations were recorded.

[2] = EU classification / screening test; cited from earlier work
rat = details: in vivo; cited from earlier work
[3] = 500 mg/kg body weight/day to dams
[4] = 500 mg/kg body weight/day, gavage
[5] = 500 mg/kg body weight/day, gavage once daily, day 6-20 post coitum, 5 mated females per group
[6] = 100 mg/kg body weight/day, gavage

Row | SMILES | Incidence of zygomatic arch fusion in the skull of foetuses [1, 3] | Weights of the foetuses (male and female) [1, 3] | Maternal absolute body weight [1, 4] | Maternal body weight gain [1, 4] | Maternal corrected body weight gain [1, 4] | Maternal food consumption at start of treatment, days 6-9 p.c. [1, 4] | Bedding in the mouth (females/dams affected) [1, 5] | Reprotoxicity [2] | Bone and cartilage abnormalities and variations / ossification and supernumerary ribs; test item-related effects in the foetuses [1] | Weights of the foetuses [1] | Maternal mean body weight, body weight gain and corrected body weight gain [1, 6] | Maternal mean food consumption vs control group [1, 6] | further results
1 | CC(C)N1CCCC1=O [N-isopropylpyrrolidone] | slightly increased | statistically significantly reduced | did not have a clear effect | statistically significantly reduced | reduced but not statistically significantly | decreased slightly | 4 |  |  |  |  |  | Incidence of cervical ribs in foetuses [1, 3]: clearly increased incidence; Incompletely ossified cranial structures in foetuses [1, 3]: slightly increased; Number of foetuses per dam [1, 3]: decreased; Post-implantation loss and embryonic resorptions [1, 3]: increased; Maternal mean food consumption after days 6-9 p.c. / overall vs control group [1, 4]: recovered thereafter
2 | CC1CCC(=O)N1C (centres unmarked) [DMP, 1,5-dimethylpyrrolidone] |  |  |  |  |  |  |  | suspected as being reprotoxic |  |  |  |  | 
3 | CN1CCCC1=O [NMP, N-methylpyrrolidone] |  |  |  |  |  |  |  | reprotoxic category 2 |  |  |  |  | Toxicity, LD50 oral rat (rat): 3914 mg/kg
4 | CC(C)CN1CCCC1=O [N-isobutylpyrrolidone] |  |  |  |  |  |  |  |  | no test item-related findings; also recorded: No test item-related effects | not affected | no effects; also recorded: not affected | no effects | 
5 | CCCN1CCCC1=O [N-n-propylpyrrolidone] | increased incidence | statistically significantly reduced | at no time statistically significantly reduced | statistically significantly reduced | reduced without statistical significance | statistically significantly reduced | all females |  |  |  |  |  | Incidence of non-ossified cervical vertebral bodies and supernumerary ribs in foetuses [1, 3]: slightly increased incidence; Mean food consumption compared to the control group ([1]; 500 mg/kg body weight/day, treatment period days 6-21 p.c.): −9.1%; Maternal corrected body weight gain ([1]; 500 mg/kg body weight/day, control group 11.1%): 7.6%; Maternal body weight gain over the treatment period ([1]; 500 mg/kg body weight/day, control group 49%): 36%
6 | CCCCN1CCCC1=O [N-n-butylpyrrolidone] |  |  |  |  |  |  |  |  | no test item-related findings; also recorded: No test item-related effects | not affected | No effects | No effects; also recorded: not considered to have been affected | Bedding in the mouth (females affected) ([1]; 100 mg/kg body weight/day, gavage once daily, day 6-20 post coitum, 5 mated females per group): one female
